Data taken from patent US6969738B2, “Malic acid diester surfactants” (Air Products and Chemicals, Inc., priority 1999, dated 2005).

Key:
Type in all cases: physicochemical
[1] = Foam test of 0.1 wt % solutions, procedure based upon ASTM D 1173-53; conditions: 0.1 wt % solution
Procedure: The foaming properties of 0.1 wt % solutions of the dialkylmalate surfactants of this invention were examined using a procedure based upon ASTM D 1173-53. In this test, a 0.1 wt % solution of the surfactant is added from an elevated foam pipette to a foam receiver containing the same solution. The foam height is measured at the completion of the addition (“Initial Foam Height”) and the time required for the foam to dissipate at the air-liquid interface (“Time to 0 Foam”) is recorded. This test provides a comparison between the foaming characteristics of various surfactant solutions. In general, in coatings, inks, adhesives, fountain solutions and agricultural compositions, foam is undesirable because it complicates handling and can lead to coating and print defects, and to inefficient application of agricultural materials.

[2] = Dynamic surface tension of aqueous solutions, maximum bubble pressure method; conditions: for γ(0.1 wt % solution) (1 b/s) / γ(0.1 wt % solution) (6 b/s) / pC20 / limiting γ (0.1 b/s) / limiting γ (1 b/s) / limiting γ (6 b/s) / limiting γ (20 b/s): 25° C.; for pC20: negative logarithm of molar concentration giving 52.1 dyne/cm at 0.1 b/s; for limiting γ (0.1 b/s) / limiting γ (1 b/s) / limiting γ (6 b/s) / limiting γ (20 b/s): water
Excerpt: In the following Examples dynamic surface tension data were obtained for aqueous solutions of various compounds using the maximum bubble pressure method at bubble rates from 0.1 bubbles/second (b/s) to 20 b/s. […] In practical terms, high bubble rates correspond to high printing speeds in lithographic printing, high spray or roller velocities in coating applications, and rapid application rates for agricultural products.
(§1) Solutions of the materials of Examples 1-10 in distilled water were prepared. […] The pC20 value is defined as the negative logarithm of the molar concentration of surfactant required to decrease the surface tension of an aqueous solution to […], that is, 20 dyne/cm below that of pure water when the measurement is performed at 0.1 b/s. This value is a measure of the efficiency of a surfactant. […] In addition, the relative efficiency of surfactants can be obtained by comparing surface tension reduction of solutions containing the same amount of different surfactants. Such data is given for 0.1 wt % solutions of the dialkylmalates at 1.0 and 6.0 bubbles/second (b/s). The solubility limit was determined by intersection of the linear portion of a surface tension/In concentration curve with the limiting surface tension as is described in many textbooks. The limiting surface tensions at 0.1, 1, 6 and 20 b/s represent the lowest surface tensions in water which can be achieved at the given surface creation rates for a given surfactant regardless of the amount of surfactant used and is used to evaluate the effectiveness of a surfactant. These values give information about the relative ability of a surfactant to reduce surface defects under near-equilibrium conditions (0.1 b/s) through very dynamic conditions (20 b/s). Lower surface tensions would allow the elimination of defects upon application of a formulation onto lower energy surfaces.

[3] = Solubility limit in water from surface tension/ln concentration curve; conditions: distilled water, 25° C.
Procedure: as §1

| SMILES | initial foam [1] | time to zero foam [1] | γ(0.1 wt % solution) (1 b/s) [2] | γ(0.1 wt % solution) (6 b/s) [2] | pC20 [2] | limiting γ (0.1 b/s) [2] | limiting γ (1 b/s) [2] | limiting γ (6 b/s) [2] | limiting γ (20 b/s) ([2]; 20 b/s) | limiting γ (20 b/s) ([2]; 20 b/s, listed as diisopropyl-(S)-(−)-malate) | solubility limit [3] | decrease in the limiting surface tension compared to dibutyl-DL-malate ([2]; 20 b/s) | limiting γ (20 b/s) ([2]; 20 b/s, listed as diisobutyl-DL-malate) |
| --- | --- | --- | --- | --- | --- | --- | --- | --- | --- | --- | --- | --- | --- |
| O=C(CC(O)C(=O)OCc1ccccc1)OCc1ccccc1 (racemic) [Example 10, Dibenzyl-DL-malate] | 0 cm | 0 s | 61.5 dyne/cm | 65.2 dyne/cm | 2.23 | 54.0 Dyne/cm | 57.7 Dyne/cm | 60.3 Dyne/cm | 70.0 Dyne/cm |  | 0.08 Weight % |  |  |
| CC(C)CC(C)OC(=O)CC(O)C(=O)OC(C)CC(C)C (racemic) [Example 9, Di(4-methyl-2-pentyl)-DL-malate] | 0 cm | 0 s | 46.2 dyne/cm | 56.4 dyne/cm | 3.84 | 40.8 Dyne/cm | 50.9 Dyne/cm | 63.9 Dyne/cm | 69.4 Dyne/cm |  | 0.02 Weight % |  |  |
| CCCCCOC(=O)CC(O)C(=O)OCCCCC (racemic) [Example 5, Dipentyl-DL-malate] | 0.5 cm | 0.2 s | 38.2 dyne/cm | 40.5 dyne/cm | 3.52 | 36.8 Dyne/cm | 38.2 Dyne/cm | 40.5 Dyne/cm | 50.1 Dyne/cm |  | 0.03 Weight % |  |  |
| CCCCOC(=O)CC(O)C(=O)OCCCC (racemic) [Example 2, Dibutyl-DL-malate] | 0.9 cm | 20 s | 43.8 dyne/cm | 44.8 dyne/cm | 3.04 | 35.8 Dyne/cm | 36.0 Dyne/cm | 36.5 Dyne/cm | 38.6 Dyne/cm |  | 0.3 Weight % |  |  |
| CCC(C)OC(=O)CC(O)C(=O)OC(C)CC (racemic) [Example 4, Di-sec-butyl-DL-malate] | 1.0 cm | 60 s | 47.8 dyne/cm | 48.5 dyne/cm | 2.77 | 36.5 Dyne/cm | 36.7 Dyne/cm | 37.3 Dyne/cm | 38.1 Dyne/cm |  | 0.6 Weight % |  |  |

Now from value to compound:

| initial foam [1] | time to zero foam [1] | γ(0.1 wt % solution) (1 b/s) [2] | γ(0.1 wt % solution) (6 b/s) [2] | pC20 [2] | limiting γ (0.1 b/s) [2] | limiting γ (1 b/s) [2] | limiting γ (6 b/s) [2] | limiting γ (20 b/s) ([2]; 20 b/s) | limiting γ (20 b/s) ([2]; 20 b/s, listed as diisopropyl-(S)-(−)-malate) | solubility limit [3] | decrease in the limiting surface tension compared to dibutyl-DL-malate ([2]; 20 b/s) | limiting γ (20 b/s) ([2]; 20 b/s, listed as diisobutyl-DL-malate) | SMILES |
| --- | --- | --- | --- | --- | --- | --- | --- | --- | --- | --- | --- | --- | --- |
| 1.3 cm | 14 s | 59.2 dyne/cm | 60.1 dyne/cm | 1.83 | 33.6 Dyne/cm | 33.8 Dyne/cm | 34.0 Dyne/cm | 35.3 Dyne/cm | < 34 Dyne/cm | 5 Weight % |  |  | CC(C)OC(=O)C[C@H](O)C(=O)OC(C)C [Example 1, Diisopropyl-(S)-(−)-malate] |
| 0.6 cm | 0.2 s | 44.1 dyne/cm | 45.2 dyne/cm | 3.08 | 33.5 Dyne/cm | 33.3 Dyne/cm | 33.4 Dyne/cm | 35.3 Dyne/cm |  | 0.4 Weight % | 3.3 dyne/cm | less than 36 Dyne/cm | CC(C)COC(=O)CC(O)C(=O)OCC(C)C (racemic) [Example 3, Diisobutyl-DL-malate] |
| 0.3 cm | 0.3 s | 36.8 dyne/cm | 39.5 dyne/cm | 3.86 | 35.6 Dyne/cm | 36.8 Dyne/cm | 39.5 Dyne/cm | 48.0 Dyne/cm |  | 0.04 Weight % |  |  | CC(C)CCOC(=O)CC(O)C(=O)OCCC(C)C (racemic) [Example 6, Diisoamyl-DL-malate] |
| 1.2 cm | 0.1 s | 38.9 dyne/cm | 41.2 dyne/cm | 3.47 | 37.8 Dyne/cm | 38.9 Dyne/cm | 41.2 Dyne/cm | 49.7 Dyne/cm |  | 0.04 Weight % |  |  | CCC(C)COC(=O)CC(O)C(=O)OCC(C)CC (racemic) [Example 7, Di(2-methylbutyl)-DL-malate] |
| 0.5 cm | 0.1 s | 58.8 dyne/cm | 52.0 dyne/cm | 3.25 | 55.6 Dyne/cm | 65.2 Dyne/cm | 69.3 Dyne/cm | 71.2 Dyne/cm |  | 0.005 Weight % |  |  | CCCCCCOC(=O)CC(O)C(=O)OCCCCCC (racemic) [Example 8, Dihexyl-DL-malate] |
